Results reported in the kinase profiling compilation of Christmann-Franck et al. (2016).

Columns and labels:
MARK3 (human) = MARK3 (human) (UniProt P27448)
PKN1 (human) = PKN1 (human) (UniProt Q16512)
CAMK2B (human) = CAMK2B (human) (UniProt Q13554)
MTOR (human) = MTOR (human) (UniProt P42345)
MAP2K2 (human) = MAP2K2 (human) (UniProt P36507)
SIK3 (human) = SIK3 (human) (UniProt Q9Y2K2)
PDPK1 (human) = PDPK1 (human) (UniProt O15530)
CDK14 (human) = CDK14 (human) (UniProt O94921)
MAP2K1 (human) = MAP2K1 (human) (UniProt Q02750)
CAMK2A (human) = CAMK2A (human) (UniProt Q9UQM7)
STRADA (human) = STRADA (human) (UniProt Q7RTN6)
MAPK8 (human) = MAPK8 (human) (UniProt P45983)
RIPK2 (human) = RIPK2 (human) (UniProt O43353)
MAP2K6 (human) = MAP2K6 (human) (UniProt P52564)
HCK (human) = HCK (human) (UniProt P08631)
MAP3K4 (human) = MAP3K4 (human) (UniProt Q9Y6R4)
BMP2K (human) = BMP2K (human) (UniProt Q9NSY1)
JAK1 JH1 JH2 (human) = JAK1 JH1 JH2 (human) (UniProt P23458)
GAK (human) = GAK (human) (UniProt O14976)
CSNK2A1 (human) = CSNK2A1 (human) (UniProt P68400)
TYK2 JH1 JH2 (human) = TYK2 JH1 JH2 (human) (UniProt P29597)
CSNK1A1 (human) = CSNK1A1 (human) (UniProt P48729)
JAK3 JH1 JH2 (human) = JAK3 JH1 JH2 (human) (UniProt P52333)
YES1 (human) = YES1 (human) (UniProt P07947)
PRKDC (human) = PRKDC (human) (UniProt P78527)
PTK2 (human) = PTK2 (human) (UniProt Q05397)
RPS6KA1 KD1 KD2 (human) = RPS6KA1 KD1 KD2 (human) (UniProt Q15418)
SYK (human) = SYK (human) (UniProt P43405)
IKBKE (human) = IKBKE (human) (UniProt Q14164)
PIK3C2B (human) = PIK3C2B (human) (UniProt O00750)
PAK4 (human) = PAK4 (human) (UniProt O96013)
MAP4K1 (human) = MAP4K1 (human) (UniProt Q92918)
NEK9 (human) = NEK9 (human) (UniProt Q8TD19)
PRKAA1 (human) = PRKAA1 (human) (UniProt Q13131)
JAK2 JH1 JH2 (human) = JAK2 JH1 JH2 (human) (UniProt O60674)
STK17B (human) = STK17B (human) (UniProt O94768)
TAOK3 (human) = TAOK3 (human) (UniProt Q9H2K8)
CSNK1G3 (human) = CSNK1G3 (human) (UniProt Q9Y6M4)
RPS6KA3 KD1 KD2 (human) = RPS6KA3 KD1 KD2 (human) (UniProt P51812)
MAP4K5 (human) = MAP4K5 (human) (UniProt Q9Y4K4)
WEE1 (human) = WEE1 (human) (UniProt P30291)
LIMK1 (human) = LIMK1 (human) (UniProt P53667)
TAOK2 (human) = TAOK2 (human) (UniProt Q9UL54)

Sequence of RPS6KA3 KD1 KD2 (human) (P51812 whole entry, looked up): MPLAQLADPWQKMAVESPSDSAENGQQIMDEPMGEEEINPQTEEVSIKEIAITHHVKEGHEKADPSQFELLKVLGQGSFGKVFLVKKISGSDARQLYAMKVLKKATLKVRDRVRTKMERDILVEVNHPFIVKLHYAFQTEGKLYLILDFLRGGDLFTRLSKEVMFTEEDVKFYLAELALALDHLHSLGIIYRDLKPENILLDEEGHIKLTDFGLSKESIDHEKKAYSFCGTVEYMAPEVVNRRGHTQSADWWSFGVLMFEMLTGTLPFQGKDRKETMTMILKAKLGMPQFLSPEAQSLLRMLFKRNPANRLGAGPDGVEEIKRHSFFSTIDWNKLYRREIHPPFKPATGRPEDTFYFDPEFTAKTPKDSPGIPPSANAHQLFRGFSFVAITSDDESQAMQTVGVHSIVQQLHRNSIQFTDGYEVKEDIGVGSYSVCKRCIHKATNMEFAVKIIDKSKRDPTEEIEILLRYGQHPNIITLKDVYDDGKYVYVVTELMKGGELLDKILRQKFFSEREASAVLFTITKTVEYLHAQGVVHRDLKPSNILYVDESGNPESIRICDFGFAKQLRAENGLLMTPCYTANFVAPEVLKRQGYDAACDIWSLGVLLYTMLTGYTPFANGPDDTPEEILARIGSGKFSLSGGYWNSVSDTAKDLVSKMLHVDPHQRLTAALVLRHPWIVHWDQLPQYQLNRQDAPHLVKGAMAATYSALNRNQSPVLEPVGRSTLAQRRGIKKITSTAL
Sequence of MAP2K2 (human) (P36507 whole entry, looked up): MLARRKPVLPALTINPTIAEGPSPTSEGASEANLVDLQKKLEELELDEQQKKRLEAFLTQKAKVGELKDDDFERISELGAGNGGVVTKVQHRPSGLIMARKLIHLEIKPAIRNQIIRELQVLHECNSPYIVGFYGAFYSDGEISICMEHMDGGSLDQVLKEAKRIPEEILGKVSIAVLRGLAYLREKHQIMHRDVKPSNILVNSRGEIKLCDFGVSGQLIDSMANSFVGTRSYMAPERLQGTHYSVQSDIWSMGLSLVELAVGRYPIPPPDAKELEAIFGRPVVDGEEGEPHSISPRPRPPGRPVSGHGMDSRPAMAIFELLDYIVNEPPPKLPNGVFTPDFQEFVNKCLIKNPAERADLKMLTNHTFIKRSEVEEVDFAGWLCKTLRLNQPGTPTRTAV
Sequence of CSNK2A1 (human) (P68400 whole entry, looked up): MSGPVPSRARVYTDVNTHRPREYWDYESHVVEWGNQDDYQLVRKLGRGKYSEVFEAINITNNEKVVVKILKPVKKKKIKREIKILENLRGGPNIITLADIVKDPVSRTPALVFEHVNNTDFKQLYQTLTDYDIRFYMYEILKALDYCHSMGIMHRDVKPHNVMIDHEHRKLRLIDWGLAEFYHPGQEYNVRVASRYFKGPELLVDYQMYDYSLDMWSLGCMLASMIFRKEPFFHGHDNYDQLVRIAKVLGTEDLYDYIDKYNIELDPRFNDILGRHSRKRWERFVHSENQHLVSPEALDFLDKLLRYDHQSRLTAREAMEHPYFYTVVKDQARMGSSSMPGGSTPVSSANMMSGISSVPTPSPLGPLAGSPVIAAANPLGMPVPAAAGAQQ
Sequence of PAK4 (human) (O96013 whole entry, looked up): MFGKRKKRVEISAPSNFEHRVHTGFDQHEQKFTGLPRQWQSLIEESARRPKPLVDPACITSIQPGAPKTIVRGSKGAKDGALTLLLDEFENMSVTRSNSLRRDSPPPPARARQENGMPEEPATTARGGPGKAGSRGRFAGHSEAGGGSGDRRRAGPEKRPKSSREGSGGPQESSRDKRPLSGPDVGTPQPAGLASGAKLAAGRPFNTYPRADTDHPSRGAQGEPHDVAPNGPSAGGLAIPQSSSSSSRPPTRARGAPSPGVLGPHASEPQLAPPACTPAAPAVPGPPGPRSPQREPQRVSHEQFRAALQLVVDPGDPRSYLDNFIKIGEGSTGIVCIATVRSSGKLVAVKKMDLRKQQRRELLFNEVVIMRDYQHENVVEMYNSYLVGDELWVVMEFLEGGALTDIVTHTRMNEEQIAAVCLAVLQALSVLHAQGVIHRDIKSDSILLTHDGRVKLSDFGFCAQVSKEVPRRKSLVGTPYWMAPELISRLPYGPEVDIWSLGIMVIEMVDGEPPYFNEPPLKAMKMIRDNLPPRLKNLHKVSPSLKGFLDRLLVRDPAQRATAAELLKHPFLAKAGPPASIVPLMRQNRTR
Sequence of CAMK2A (human) (Q9UQM7 whole entry, looked up): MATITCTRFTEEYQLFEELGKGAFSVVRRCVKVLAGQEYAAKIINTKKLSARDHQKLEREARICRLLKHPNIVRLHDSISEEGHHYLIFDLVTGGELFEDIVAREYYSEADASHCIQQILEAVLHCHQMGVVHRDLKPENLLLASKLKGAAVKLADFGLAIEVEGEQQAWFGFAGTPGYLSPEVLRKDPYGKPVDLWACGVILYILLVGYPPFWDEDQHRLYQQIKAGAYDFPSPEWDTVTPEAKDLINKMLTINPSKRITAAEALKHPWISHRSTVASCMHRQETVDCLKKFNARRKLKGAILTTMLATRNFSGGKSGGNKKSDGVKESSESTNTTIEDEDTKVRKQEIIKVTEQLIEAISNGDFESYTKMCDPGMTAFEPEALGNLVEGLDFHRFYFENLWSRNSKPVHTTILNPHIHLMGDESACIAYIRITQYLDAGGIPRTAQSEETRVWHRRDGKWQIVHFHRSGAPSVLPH
Sequence of STK17B (human) (O94768 whole entry, looked up): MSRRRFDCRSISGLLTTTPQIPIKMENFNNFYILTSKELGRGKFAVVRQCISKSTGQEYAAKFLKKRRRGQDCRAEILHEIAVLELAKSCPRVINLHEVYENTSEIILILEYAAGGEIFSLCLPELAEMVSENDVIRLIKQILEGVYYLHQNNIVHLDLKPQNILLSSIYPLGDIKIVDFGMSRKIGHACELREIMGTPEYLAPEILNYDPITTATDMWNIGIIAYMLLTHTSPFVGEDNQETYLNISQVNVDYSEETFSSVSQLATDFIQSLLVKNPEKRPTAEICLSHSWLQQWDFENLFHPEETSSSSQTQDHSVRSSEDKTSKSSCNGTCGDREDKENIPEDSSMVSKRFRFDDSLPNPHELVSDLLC
Sequence of JAK2 JH1 JH2 (human) (O60674 whole entry, looked up): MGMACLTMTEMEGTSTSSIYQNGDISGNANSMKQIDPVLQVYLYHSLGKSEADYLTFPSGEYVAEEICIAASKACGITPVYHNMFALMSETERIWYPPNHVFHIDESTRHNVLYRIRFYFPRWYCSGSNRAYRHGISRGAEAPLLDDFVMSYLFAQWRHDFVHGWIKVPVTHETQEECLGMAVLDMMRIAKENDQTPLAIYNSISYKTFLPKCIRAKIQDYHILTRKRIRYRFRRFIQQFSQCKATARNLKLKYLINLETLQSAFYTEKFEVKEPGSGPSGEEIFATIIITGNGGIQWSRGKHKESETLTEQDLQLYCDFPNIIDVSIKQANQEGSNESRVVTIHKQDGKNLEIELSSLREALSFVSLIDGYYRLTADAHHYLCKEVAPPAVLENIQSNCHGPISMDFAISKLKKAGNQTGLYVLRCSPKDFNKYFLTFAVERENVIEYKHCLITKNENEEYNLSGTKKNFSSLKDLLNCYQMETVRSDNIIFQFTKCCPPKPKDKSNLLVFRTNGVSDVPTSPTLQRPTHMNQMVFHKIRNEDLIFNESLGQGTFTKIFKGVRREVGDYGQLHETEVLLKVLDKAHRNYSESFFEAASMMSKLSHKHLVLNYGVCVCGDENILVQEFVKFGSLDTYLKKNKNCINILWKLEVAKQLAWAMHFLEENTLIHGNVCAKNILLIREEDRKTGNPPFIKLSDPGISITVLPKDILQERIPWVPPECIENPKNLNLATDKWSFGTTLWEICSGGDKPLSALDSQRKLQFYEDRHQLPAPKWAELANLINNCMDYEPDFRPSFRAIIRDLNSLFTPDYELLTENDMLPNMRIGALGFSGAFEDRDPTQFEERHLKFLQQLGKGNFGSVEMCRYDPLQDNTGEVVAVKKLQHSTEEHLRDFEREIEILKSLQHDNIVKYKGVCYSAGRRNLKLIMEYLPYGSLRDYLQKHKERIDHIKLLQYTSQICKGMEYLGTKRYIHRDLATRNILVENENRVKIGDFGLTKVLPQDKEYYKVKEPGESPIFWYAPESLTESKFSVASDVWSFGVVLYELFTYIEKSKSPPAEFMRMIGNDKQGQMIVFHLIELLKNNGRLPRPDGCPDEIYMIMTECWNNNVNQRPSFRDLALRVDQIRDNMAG
Sequence of STRADA (human) (Q7RTN6 whole entry, looked up): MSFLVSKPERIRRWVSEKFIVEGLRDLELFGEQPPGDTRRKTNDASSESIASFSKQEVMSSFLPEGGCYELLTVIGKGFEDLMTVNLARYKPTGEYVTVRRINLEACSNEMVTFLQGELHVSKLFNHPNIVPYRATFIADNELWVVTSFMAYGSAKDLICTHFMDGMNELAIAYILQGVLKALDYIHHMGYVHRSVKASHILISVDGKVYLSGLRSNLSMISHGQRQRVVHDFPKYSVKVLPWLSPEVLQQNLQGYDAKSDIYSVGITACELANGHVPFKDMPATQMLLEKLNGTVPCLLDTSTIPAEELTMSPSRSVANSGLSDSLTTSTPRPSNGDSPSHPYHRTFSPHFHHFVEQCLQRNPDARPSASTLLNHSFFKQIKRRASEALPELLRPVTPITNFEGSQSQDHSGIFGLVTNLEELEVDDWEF
Sequence of MAPK8 (human) (P45983 whole entry, looked up): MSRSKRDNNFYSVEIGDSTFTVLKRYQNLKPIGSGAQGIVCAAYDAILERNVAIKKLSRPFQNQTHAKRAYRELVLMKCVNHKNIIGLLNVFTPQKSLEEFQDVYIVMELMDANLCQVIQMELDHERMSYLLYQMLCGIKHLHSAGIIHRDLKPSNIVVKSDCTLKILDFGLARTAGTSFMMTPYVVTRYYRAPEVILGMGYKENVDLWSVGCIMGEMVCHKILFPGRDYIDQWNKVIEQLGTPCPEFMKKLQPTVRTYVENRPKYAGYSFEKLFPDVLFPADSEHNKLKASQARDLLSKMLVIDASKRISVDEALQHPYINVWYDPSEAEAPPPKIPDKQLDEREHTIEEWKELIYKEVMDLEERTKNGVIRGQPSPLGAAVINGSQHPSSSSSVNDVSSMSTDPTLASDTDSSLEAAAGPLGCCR

SMILES: CN1CC[C@H](c2c(O)cc(O)c3c(=O)cc(-c4ccccc4Cl)oc23)[C@H](O)C1
- IC50 (MARK3 (human)): 3 µM
- IC50 (PKN1 (human)): > 10 µM
- IC50 (CAMK2B (human)): 7.68 µM
- IC50 (MTOR (human)): > 10 µM
- IC50 (MAP2K2 (human)): > 10 µM
- IC50 (SIK3 (human)): > 10 µM
- IC50 (PDPK1 (human)): > 10 µM
- IC50 (CDK14 (human)): 2.96 µM
- IC50 (MAP2K1 (human)): > 10 µM
- IC50 (CAMK2A (human)): > 10 µM
- IC50 (STRADA (human)): > 10 µM
- IC50 (MAPK8 (human)): > 10 µM
- IC50 (RIPK2 (human)): > 10 µM
- IC50 (MAP2K6 (human)): > 10 µM
- IC50 (HCK (human)): > 10 µM
- IC50 (MAP3K4 (human)): > 10 µM
- IC50 (BMP2K (human)): > 10 µM
- IC50 (JAK1 JH1 JH2 (human)): > 10 µM
- IC50 (GAK (human)): > 10 µM
- IC50 (CSNK2A1 (human)): 9.42 µM
- IC50 (TYK2 JH1 JH2 (human)): 2.48 µM
- IC50 (CSNK1A1 (human)): 8.41 µM
- IC50 (JAK3 JH1 JH2 (human)): > 10 µM
- IC50 (YES1 (human)): > 10 µM
- IC50 (PRKDC (human)): > 10 µM
- IC50 (PTK2 (human)): > 10 µM
- IC50 (RPS6KA1 KD1 KD2 (human)): 8.74 µM
- IC50 (SYK (human)): > 10 µM
- IC50 (IKBKE (human)): > 10 µM
- IC50 (PIK3C2B (human)): > 10 µM
- IC50 (PAK4 (human)): > 10 µM
- IC50 (MAP4K1 (human)): > 10 µM
- IC50 (NEK9 (human)): > 10 µM
- IC50 (PRKAA1 (human)): > 10 µM
- IC50 (JAK2 JH1 JH2 (human)): > 10 µM
- IC50 (STK17B (human)): > 10 µM
- IC50 (TAOK3 (human)): 9.47 µM
- IC50 (CSNK1G3 (human)): > 10 µM
- IC50 (RPS6KA3 KD1 KD2 (human)): > 10 µM
- IC50 (MAP4K5 (human)): > 10 µM
- IC50 (WEE1 (human)): > 10 µM
- IC50 (LIMK1 (human)): > 10 µM
- IC50 (TAOK2 (human)): 8.47 µM
